Like-named read-outs stand apart in the source and are kept apart here.
Experiments:
[1] = biological target: FLT3 (Homo sapiens (Human), UniProt P36888); experiment: FLT3 kinase test (Z'-LYTE); assay type: biochemical
Summary of the method: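 Z'-LYTE FRET format; kinase reaction started with ATP, run 1 h at room temperature, then 1 h development before stop reagent. Controls without compound, without kinase, and phosphopeptide as 100% phosphorylation reference; values reported in M.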

[2] = Human liver microsomal stability test; assay type: in vitro ADME; details: human liver microsomes
[3] = biological target: Recombinant human Syk (amino acids 342-635), GST-Syk kinase fusion protein (Homo sapiens (Human), UniProt P43405); experiment: Syk kinase test (Kinase Glo luminescence); assay type: biochemical
[4] = biological target: Recombinant human Aurora B (amino acids 1-344) (Homo sapiens (Human), UniProt Q96GD4); experiment: Aurora B kinase test (ADP Glo luminescence); assay type: biochemical
[5] = biological target: Human GSK3beta (Homo sapiens (Human), UniProt P49841); experiment: GSK 3beta kinase test (Z'-LYTE); assay type: biochemical; details: read-out: IC50 in μM (GSK3beta-Inhibition)
Description: Human GSK3beta (expressed and prified from SF21 cells) is obtained from the University Dundee/Scotland (Dr. James Hastie—Dept. of Biochemistry) in 50 mM Tris (pH7.5); 150 mM NaCl; 0.1 mM EGTA, 270 mM Succrose, 0.1% β-mercaptoethanol, 1 mM benzamidine, 0.2 mM PMSF; sequence see below). The enzyme is diluted to 3.56 μM (168 μg/ml) in enzyme dilution buffer and 6 μl aliquots are stored at −80° C.
The activity of GSK3 kinase protein is measured using the Z′-LYTETM assay technology from Invitrogen (# PV3324).
The assay is performed in 384 black plates from Corning (#3676) in a final volume of 10 μl by adding 5 μl of kinase peptide mix and 2.5 μl of compound dilution. The reaction is started by addition of 2.5 μl of the 4×ATP solution.
Positive controls are reaction mixtures containing no test compound; negative controls (blanks) are reaction mixtures containing no ATP. As a further control, the phosphopeptide solution is added to wells without kinase and without ATP (=100% phosphorylation control).
The non inhibited kinase reaction will result in a phosphorylation corresponding to 20%-30% of the phosphorylation control.
The reaction is performed 1 h at room temperature. After 1h 5 μl of the development solution is added. After a further incubation for 1 h at room temperature 5 μl of the stop reagent is added. Finally the plates are read on a Flex Station II 384 (Molecular Devices).
The output text file is evaluated in an “MS-Excel—VB-Makro” and “GraphPadPrism” (Version 5) (GraphPad Software Inc.) is used to calculate the results. Data for the inhibition of GSK3beta are reported in M. data for the inhibition of the protease are reported in % CTL.

[6] = Table 1, read-out: FLT3-inhibition IC50-value
[7] = read-out: IC50 in μM (FLT3-Inhibition)
[8] = Table 1, read-out: SYK-inhibition IC50-value
[9] = read-out: IC50 in μM (SYK-Inhibition)
[10] = Table 1, read-out: AURB-inhibition IC50-value
[11] = read-out: IC50 in μM (AURB-Inhibition)

Sequence of FLT3 (P36888 27-993): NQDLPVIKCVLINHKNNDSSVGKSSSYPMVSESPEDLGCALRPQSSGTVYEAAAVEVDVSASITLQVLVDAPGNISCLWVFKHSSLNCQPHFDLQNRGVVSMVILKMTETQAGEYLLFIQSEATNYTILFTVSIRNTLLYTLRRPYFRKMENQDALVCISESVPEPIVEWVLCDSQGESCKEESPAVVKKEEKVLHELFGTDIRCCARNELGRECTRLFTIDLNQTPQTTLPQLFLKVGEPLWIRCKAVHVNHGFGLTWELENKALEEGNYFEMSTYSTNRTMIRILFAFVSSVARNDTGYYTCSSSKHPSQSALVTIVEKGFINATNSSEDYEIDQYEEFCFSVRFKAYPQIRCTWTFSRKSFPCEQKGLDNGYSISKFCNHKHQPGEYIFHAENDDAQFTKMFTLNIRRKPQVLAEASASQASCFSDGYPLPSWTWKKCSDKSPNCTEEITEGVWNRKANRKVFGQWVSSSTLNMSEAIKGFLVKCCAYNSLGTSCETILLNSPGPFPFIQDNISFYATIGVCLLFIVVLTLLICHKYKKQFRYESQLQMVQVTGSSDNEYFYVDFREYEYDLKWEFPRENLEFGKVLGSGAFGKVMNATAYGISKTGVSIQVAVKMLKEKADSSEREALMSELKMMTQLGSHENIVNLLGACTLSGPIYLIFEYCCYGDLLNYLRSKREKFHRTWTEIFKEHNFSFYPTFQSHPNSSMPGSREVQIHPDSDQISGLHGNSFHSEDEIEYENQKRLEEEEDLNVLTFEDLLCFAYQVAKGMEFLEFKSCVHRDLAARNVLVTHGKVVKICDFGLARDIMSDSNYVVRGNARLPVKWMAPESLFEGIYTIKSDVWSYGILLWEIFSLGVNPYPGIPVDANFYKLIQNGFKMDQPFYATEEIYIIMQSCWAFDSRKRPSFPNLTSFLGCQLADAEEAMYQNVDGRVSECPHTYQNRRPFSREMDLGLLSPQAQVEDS
Sequence of Recombinant human Aurora B (amino acids 1-344) (Q96GD4 whole entry, the tested form may be a part): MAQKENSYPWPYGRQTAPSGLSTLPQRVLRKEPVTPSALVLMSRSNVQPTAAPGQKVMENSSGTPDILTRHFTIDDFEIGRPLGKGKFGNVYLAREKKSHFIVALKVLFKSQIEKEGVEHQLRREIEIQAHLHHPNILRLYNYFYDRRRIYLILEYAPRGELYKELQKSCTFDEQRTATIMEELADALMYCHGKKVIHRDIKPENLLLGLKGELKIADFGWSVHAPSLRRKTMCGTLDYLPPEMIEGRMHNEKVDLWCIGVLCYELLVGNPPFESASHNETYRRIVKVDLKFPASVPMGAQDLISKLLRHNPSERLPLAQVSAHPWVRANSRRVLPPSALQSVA
Sequence of Human GSK3beta (P49841 whole entry): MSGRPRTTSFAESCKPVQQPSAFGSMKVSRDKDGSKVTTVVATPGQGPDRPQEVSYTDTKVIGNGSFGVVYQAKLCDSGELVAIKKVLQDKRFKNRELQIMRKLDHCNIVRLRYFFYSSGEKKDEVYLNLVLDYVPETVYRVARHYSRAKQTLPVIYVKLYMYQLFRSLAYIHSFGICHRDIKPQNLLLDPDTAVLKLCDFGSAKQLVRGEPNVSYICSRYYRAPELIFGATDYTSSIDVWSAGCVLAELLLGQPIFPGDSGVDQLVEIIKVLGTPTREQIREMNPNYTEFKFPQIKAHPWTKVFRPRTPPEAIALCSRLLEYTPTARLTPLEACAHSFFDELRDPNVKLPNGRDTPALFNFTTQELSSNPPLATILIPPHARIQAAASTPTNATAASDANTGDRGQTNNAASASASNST

Structure (SMILES) | IC50 [1, 6] [µM] | IC50 [1, 7] [µM] | microsomal stability Cl [% Qh] ([2]; Qh = liver blood flow) | IC50 [3, 8] [µM] | IC50 [3, 9] [µM] | IC50 [4, 10] [µM] | IC50 [4, 11] [µM] | IC50 [5] [µM] | IC50 ([1]; Table 2a, read-out: IC50 in μM (FLT3-Inhibition)) [µM] | microsomal stability Cl [% Qh] ([2]; test compound 1 μM, Table 2a) | IC50 ([3]; Table 2a, read-out: IC50 in μM (SYK-Inhibition)) [µM] | IC50 ([4]; Table 2a, read-out: IC50 in μM (AURB-Inhibition)) [µM] | IC50 ([5]; Table 2a) [µM]
C[C@@H](Oc1cc(-c2ccc(F)cn2)cc2nn(C)cc12)[C@H]1CNC(=O)C1 [Example 41, (4R)-4-[(1R)-1-[6-(5-fluoro-2-pyridyl)-2-methyl-indazol-4-yl]oxyethyl]pyrrolidin-2-one] | 42.8 | 42.8 | <23 | 0.164 | 0.164 | > 50 | > 50 | > 10 |  |  |  |  | 
COc1cc(-c2cc3ncccc3c(O[C@H](C)[C@H]3CNC(=O)C3)n2)cc(OC)c1OC [35 of WO 2011/092128] |  | 1.18 | 62 |  | 0.001 |  | 5.21 | > 10 |  |  |  |  | 
CC(C)Oc1ccc(-c2cc(O[C@H](C)[C@H]3CNC(=O)C3)c3cn(C)nc3c2)cn1 [Example 27, (4R)-4-[(1R)-1-[6-(6-isopropoxy-3-pyridyl)-2-methyl-indazol-4-yl]oxyethyl]pyrrolidin-2-one] | 26.6 | 26.6 | <23 | 0.138 | 0.138 | > 50 | > 50 | > 10 |  |  |  |  | 
C[C@@H](Oc1cc(-c2cnn(C(C)(C)C)c2)cc2nn(C)cc12)[C@H]1CNC(=O)C1 [Example 18, (4R)-4-[(1R)-1-[6-(1-tert-butylpyrazol-4-yl)-2-methyl-indazol-4-yl]oxyethyl]pyrrolidin-2-one] | 13.4 |  |  | 0.0046 |  | > 50 |  |  | 13.4 | <23 | 0.0046 | > 50 | > 10
Cc1nc(C)c2cc(-c3cc(O[C@H](C)[C@H]4CNC(=O)C4)c4cccnc4c3)ccc2n1 [107 of WO 2013/014060] |  | 1.76 | 38 |  | 0.009 |  | 1.82 | > 10 |  |  |  |  | 
C[C@@H](Oc1cc(-c2ccc(C3CCN(C)CC3)cc2)cc2nn(C)cc12)[C@H]1CNC(=O)C1 [Example 42, (4R)-4-[(1R)-1-[2-methyl-6-[4-(1-methyl-4-piperidyl)-phenyl]indazol-4-yl]oxyethyl]-pyrrolidin-2-one] | 0.55 | 0.55 | <23 | 0.0167 | 0.0167 | > 50 | > 50 | > 10 |  |  |  |  | 

Source: patent US9914735B2, “Heteroaryl Syk inhibitors” (Boehringer Ingelheim International GmbH, priority 2014, dated 2018)
